Measured values taken from patent US20080255078A1, “Triphenylethylene Compounds Useful as Selective Estrogen Receptor Modulators” (priority 2005, published 2008).

Row | SMILES | melting point [°C]
1 | CCC(=C(c1ccc(O)cc1)c1ccc(O)cc1)c1cccc(/C=C/C(=O)O)c1 [Example 1, (2E)-3-{3-[1-Ethyl-2,2-bis(4-hydroxyphenyl)ethenyl]phenyl}-2-propenoic acid] | 280 to 281
2 | CCC(=C(c1ccc(O)cc1)c1ccc(O)cc1)c1cccc(-c2c(C)noc2C)c1 [Example 3, 4,4′-{2-[3-(3,5-Dimethyl-4-isoxazolyl)phenyl]-1-butene-1,1-diyl}diphenol] | 173 to 174
